Assay results reported in patent US12642812B2, “Nicotinamide mononucleotide derivatives and use thereof in the treatment and prevention of an antineoplastic-induced toxicity” (NUVAMID SA, priority 2020, dated 2026).

How the values were obtained:
Type in all cases: in vivo, mice
[1] = tested on: doxorubicin-induced cardiotoxicity; test: Survival rate in doxorubicin-induced cardiotoxicity model; conditions: for survival rate (% of survival): DOX 20 mg/kg i.p. mice, compound 180 mg/kg i.p. once daily from 5 days before DOX to D5, 5 days after DOX
Description: The aim of the present study was to evaluate, the effects of i.p. administration of compounds 001, 010 and 011 at 180 mg/kg in the progression of a cardiotoxicity induced by doxorubicin.
(§1) Cardiotoxicity was induced by a single intraperitoneal injection of doxorubicin (DOX) at 20 mg/kg. Doxorubicin was prepared at 2 mg/mL and volume of administration was 10 mL/Kg.
Mortality rate was followed-up all along the experimental phase.
(§2) • Group 1: Vehicle (i.p.) • Group 2: Doxorubicin (20 mg/kg) • Group 3: Doxorubicin (20 mg/kg)+compound 001 180 mg/kg • Group 4: Doxorubicin (20 mg/kg)+compound 010 180 mg/kg • Group 5: Doxorubicin (20 mg/kg)+compound 011 180 mg/kg Group Repartition:
At D0, mice received DOX (20 mg/kg) by intraperitoneal route.
(§3) The treatment with compounds 001, 010 and 011 was initiated from 5 days before DOX injection once per day from […] to D0.
(§4) Mice were i.p treated with compounds 001, 010 and 01130 min before DOX injection.
(§5) Mice were i.p treated with compounds 001,010 and 011 for the duration of the experiment (D0 to D5) once per day. Last injection occurred 24 hours before sacrifice.
The survival rate was recorded every day until the end of the experiment (D5).

[2] = tested on: doxorubicin-induced cardiotoxicity; test: Plasmatic LDH biomarker in doxorubicin-induced cardiotoxicity model; conditions: plasma, 5 days after DOX
Description: as §1, §2, §3, §4, §5
Retro-orbital blood collection was performed at the inclusion and at 1 and 5 days after the induction with DOX to assess biomarkers (especially LDH).
DOX mice were treated with compounds 001,010 and 011 (180 mg/kg) or vehicle. Plasmatic LDH (lactate dehydrogenase) was measured 5 days after doxorubicin injection.

[3] = tested on: doxorubicin-induced cardiotoxicity; test: Assessment of cardiac function by echocardiography in doxorubicin-induced cardiotoxicity model; conditions: 5 days after DOX; for heart rate (effect of treatment, in words): vs DOX vehicle; for end-systolic LV volume (effect of treatment): vs doxorubicin vehicle group; for anterior and posterior wall thickness in systole (effect of treatment): compound 180 mg/kg
Description: Cardiotoxicity was induced by a single intraperitoneal injection of doxorubicin (DOX) at 20 mg/kg. Doxorubicin was prepared at 2 mg/mL and volume of administration was 10 mL/Kg. • Group 1: Vehicle (i.p.) • Group 2: […] Doxorubicin (20 mg/kg)+compound 001 180 mg/kg • Group 4: Doxorubicin (20 mg/kg)+compound 010 180 mg/kg • Group 5: Doxorubicin (20 mg/kg)+compound 011 180 mg/kg Group Repartition: […] Mice were i.p treated with compounds 001, 010 and 01130 min before DOX injection. Mice were i.p treated with compounds 001,010 and 011 for the duration of the experiment (D0 to D5) once per day. Last injection occurred 24 hours before sacrifice. Echocardiography (ECG) was performed 5 days after doxorubicin injection in anesthetized (isoflurane 1.5-2%) animals with non-invasive two-dimensional echocardiography (VF16-5 probe, Siemens, Acuson NX3 Elite). After removing hairs on the chest, numeric images of the heart will be obtained in both parasternal long-axis and short axis views. The following cardiac function were assessed during ECG: • Left ventricle (LV) end-systolic and end-diastolic inner diameter, • LV end-systolic and end-diastolic volume, • Fractional shortening; • Ejection fraction; • Heart Rate; and • Anterior and posterior wall thickness in Diastole and in systole.

[4] = tested on: doxorubicin-induced cardiotoxicity; test: Body weight in doxorubicin-induced cardiotoxicity model; conditions: for body weight loss observed after doxorubicin administration (effect of treatment): DOX 20 mg/kg i.p. mice, compound 180 mg/kg i.p. daily, D5 vs before injection, vs DOX vehicle
Description: The treatment with compounds 001, 010 and 011 was initiated from 5 days before DOX injection once per day from D5 to D0.
The bodyweight was assessed at inclusion and at D5.

[5] = tested on: doxorubicin-induced cardiotoxicity; test: Heart weight in doxorubicin-induced cardiotoxicity model; conditions: 5 days after DOX; for heart weight (effect of treatment): DOX 20 mg/kg mice, compound 180 mg/kg, vs DOX vehicle mice
Description: as §1, §2, §3, §4, §5
At D5, heart and tibia were collected.

[6] = DOX 20 mg/kg mice, compound 180 mg/kg i.p. daily
[7] = doxorubicin 20 mg/kg + vehicle vs control group
[8] = doxorubicin-treated mice (20 mg/kg, vehicle) vs control

Compound | survival rate (% of survival) [1] [%] | ejection fraction [3, 6] [%] | fractional shortening [3, 6] | heart rate (effect of treatment, in words) [3, 6] | end-systolic LV volume (effect of treatment) [3, 6] | anterior and posterior wall thickness in systole (effect of treatment) ([3]; DOX 20 mg/kg mice) | body weight loss observed after doxorubicin administration (effect of treatment) [4] | heart weight (effect of treatment) [5] | also measured
NC(=O)c1ccc[n+]([C@@H]2O[C@H](COP(=O)([O-])O)[C@@H](O)[C@H]2O)c1 [Compound 001, nicotinamide mononucleotide] | 78 | 56.9±0.6 | around 38% | increased | reduced | non-significant increases | significantly decreased |  | decrease of LDH release / reduction in LDH levels ([2]; DOX 20 mg/kg mice, compound 180 mg/kg, vs DOX vehicle): more than 35%
NC(=O)c1ccc[n+]([C@@H]2O[C@H](COP(=O)([O-])OP(=O)([O-])OC[C@H]3O[C@H]([n+]4cccc(C(N)=O)c4)[C@H](O)[C@@H]3O)[C@@H](O)[C@H]2O)c1 [Compound 010] | 98 | 60.0±0.6 | around 38% | increased | reduced | non-significant increases | significantly decreased | tended to increase | heart rate [3, 6]: 470.1±18.8 bpm
NC(=O)c1ccc[n+]([C@H]2O[C@H](COP(=O)([O-])OP(=O)([O-])OC[C@H]3O[C@H]([n+]4cccc(C(N)=O)c4)[C@H](O)[C@@H]3O)[C@@H](O)[C@H]2O)c1 [Compound 011] | 100 | 58.2±0.5 | around 38% | increased | reduced | non-significant increases | significantly decreased | tended to increase | 
COc1cccc2c1C(=O)c1c(O)c3c(c(O)c1C2=O)C[C@@](O)(C(=O)CO)C[C@@H]3O[C@H]1C[C@H](N)[C@H](O)[C@H](C)O1 [doxorubicin, reference compound] |  |  |  |  |  |  |  |  | heart weight ([5]; doxorubicin 20 mg/kg + vehicle): 102.3 ± 4.6 mg; mice died before the end of experimental protocol ([1]; doxorubicin 20 mg/kg i.p. mice treated with vehicle, up to D5): ~50%; increase in LDH release compared to control group ([2]; doxorubicin 20 mg/kg + vehicle): more than 3 fold; end-diastolic LV volume [3, 7]: without significative difference; end-systolic LV volume [3, 7]: significant increase; anterior and posterior wall thickness in systole ([3]; doxorubicin 20 mg/kg + vehicle vs control): significantly decreased; heart rate ([3]; doxorubicin 20 mg/kg + vehicle): 365.1±23.9 bpm; ejection fraction ([3]; doxorubicin 20 mg/kg vehicle group): 38.9±1.3%; LV internal diameter in diastole [3, 8]: without significative difference; LV internal diameter in systole [3, 8]: significantly increased; fractional shortening ([3]; doxorubicin-treated mice (20 mg/kg, vehicle)): 33.5±0.4%; decrease in body weight (body weight gain) ([4]; doxorubicin 20 mg/kg i.p., surviving vehicle-treated mice, day of sacrifice minus before injection): -4.2 ± 0.5 g
